# Data published in PubChem BioAssay (NCI).
# Values joined by “and” are separate entries in the source; they are usually repeats but may differ in a detail not shown here. Equal entries are not always repeated.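 Each compound was tested at five concentrations against cells in 96-well plates for 48 hours. At the GI50, growth is halved. At the TGI there is no net growth.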
# Experiments:
# Assay in all cases: DTP human tumour cell line panel, 48 h
# [1] = system: OVCAR-8 ovarian
# [2] = system: BT-549 breast
# [3] = system: NCI/ADR-RES ovarian
# [4] = system: DLD-1 colon
# [5] = system: NCI-H460 lung
# [6] = system: T-47D breast
# [7] = system: HS 578T breast
# [8] = system: MCF7 breast
# [9] = system: SNB-78 CNS
# [10] = system: SF-295 CNS
Compound,TGI [1],TGI [2] [µM],TGI [3],TGI [4] [µM],TGI [5],TGI [6] [µM],TGI [7] [µM],TGI [8],TGI [9],TGI [10],GI50 [1],GI50 [3] [µM],GI50 [10],GI50 [4],GI50 [5],GI50 [8] [µM],GI50 [9]
O=C(NC(=O)c1ccccc1[N+](=O)[O-])Nc1ccc(Oc2ncc(Cl)cn2)c([N+](=O)[O-])c1,> 100 µM,> 100,3.15 µM,> 100,> 100 µM,> 100,0.636,> 100 µM,> 100 µM,–,–,–,–,–,–,–,–
O=C(O)C(C(=O)O)P(=S)(S)c1ccccc1 (stereo not drawn),> 100 µM,> 100,> 100 µM,> 100,> 100 µM,> 100,> 100,> 100 µM,> 100 µM,> 100 µM,–,–,–,–,–,–,–
O=C1NC2C(=CC(O)C(O)C2O)c2cc3c(cc21)OCO3 (stereo not drawn),2.25 µM and 1.72 µM,–,0.561 µM and 3.38 µM,2.11,2.01 µM and 1.3 µM,1.5,0.55,0.854 µM and 4.46 µM,4.94 µM and 11.2 µM,3.26 µM and 2.39 µM,0.344 µM and 0.171 µM,0.152,0.889 µM and 0.317 µM,0.325 µM and 0.217 µM,0.251 µM and 0.147 µM,0.0495,0.456 µM and 0.426 µM
O=[N+]([O-])c1ccc(C2=Nn3c(nnc3-c3ccc(Cl)cc3)SC2)o1,26.3 µM,23.9,45.1 µM,4.32,17.7 µM,12.9,18.4,4.05 µM,38.6 µM,23.5 µM,–,–,–,–,–,–,–
CC1=CCCC2C1(C)CCC(C)C2(C)Cc1cc(O)ccc1O (stereo not drawn),16.7 µM and 17.7 µM,16.2,18.2 µM and 18.9 µM,22.2,28.9 µM and 20.5 µM,27.3,17.9,21.7 µM and 19.8 µM,11 µM,23.5 µM and 21 µM,–,–,10.4 µM,–,7.19 µM,7.15,–
